In the NIST ThermoML archive (doi:10.1016/j.jct.2005.08.001):
Numbers after ± are expanded uncertainties.

Assays:
[1] = 313.15 K, Liquid; for mass density: 101.33 kPa, Pycnometric method; for vapor or sublimation pressure: Closed cell (Static) method
[2] = refractive index (Na D-line) (dimensionless); settings: 298.15 K; 101.33 kPa; Liquid; Standard Abbe refractometry

mass density [1] [kg/m3] | vapor or sublimation pressure [1] [kPa] | refractive index [2] | Compound
922.4 ± 0.6 | 0.658 ± 0.01 | 1.43556 ± 0.00075 | CC(=O)N(C)C [N,N-dimethylethanamide]
772.2 ± 0.5 | 17.89 ± 0.087 | 1.3592 ± 0.00075 | CCO [ethanol]
– | 7.375 ± 0.025 | – | O [water]
